pIC50: −log10 of the molar value.
Key:
[1] = target: Mitogen-activated protein kinase kinase kinase 20 (Homo sapiens) (UniProt Q9NYL2); conditions: Compound concentration 100.0 nM
[2] = target: Sodium-dependent noradrenaline transporter (Homo sapiens) (UniProt P23975); conditions: Compound concentration 10.0 uM
[3] = tested on: Epidermal growth factor receptor (Homo sapiens), P00533 [L861Q]; conditions: Compound concentration 100.0 nM
[4] = target: T1, Mitogen-activated protein kinase 12 (Homo sapiens) (UniProt P53778); assay: SAPK3 (h) Upstate kinase activity assay; conditions: Compound concentration 10.0 uM
T1 sequence (whole entry): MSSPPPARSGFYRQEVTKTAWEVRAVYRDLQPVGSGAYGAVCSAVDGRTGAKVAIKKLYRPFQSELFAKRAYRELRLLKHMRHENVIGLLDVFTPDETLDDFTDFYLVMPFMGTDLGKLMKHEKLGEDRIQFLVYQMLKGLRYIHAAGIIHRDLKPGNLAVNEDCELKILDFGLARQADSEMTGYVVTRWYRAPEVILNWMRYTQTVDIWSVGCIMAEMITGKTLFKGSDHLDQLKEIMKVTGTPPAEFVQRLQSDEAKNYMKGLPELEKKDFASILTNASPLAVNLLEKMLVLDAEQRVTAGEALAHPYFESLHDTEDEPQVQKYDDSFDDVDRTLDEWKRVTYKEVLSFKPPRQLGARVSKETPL

[5] = target: Receptor-type tyrosine-protein kinase FLT3 (Homo sapiens) (UniProt P36888); conditions: Compound concentration 10.0 uM
[6] = target: T2, Protein kinase C iota type (Homo sapiens) (UniProt P41743); assay: PKCiota (h) Upstate kinase activity assay; conditions: Compound concentration 10.0 uM
T2 sequence (whole entry): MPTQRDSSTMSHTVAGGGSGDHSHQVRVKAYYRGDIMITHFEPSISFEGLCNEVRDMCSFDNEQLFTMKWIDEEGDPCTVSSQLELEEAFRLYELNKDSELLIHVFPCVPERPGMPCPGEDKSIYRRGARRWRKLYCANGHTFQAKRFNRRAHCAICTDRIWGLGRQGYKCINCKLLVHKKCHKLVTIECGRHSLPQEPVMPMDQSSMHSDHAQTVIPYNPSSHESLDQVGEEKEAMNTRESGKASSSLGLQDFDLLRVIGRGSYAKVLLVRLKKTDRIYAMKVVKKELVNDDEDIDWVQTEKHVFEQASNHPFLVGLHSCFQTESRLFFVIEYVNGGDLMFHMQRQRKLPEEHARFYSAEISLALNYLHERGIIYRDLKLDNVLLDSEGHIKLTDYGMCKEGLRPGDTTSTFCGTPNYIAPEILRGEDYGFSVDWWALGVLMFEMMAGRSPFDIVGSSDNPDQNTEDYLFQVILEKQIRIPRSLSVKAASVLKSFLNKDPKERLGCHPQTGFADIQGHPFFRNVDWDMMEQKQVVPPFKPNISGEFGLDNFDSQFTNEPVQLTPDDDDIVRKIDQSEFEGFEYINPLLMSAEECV

[7] = target: Insulin receptor (Homo sapiens) (UniProt P06213); assay: IR (h) Upstate kinase activity assay; conditions: Compound concentration 10.0 uM
[8] = target: Cyclin-dependent kinase 5/CDK5 activator 1 (Homo sapiens) (UniProt Q00535+Q15078); assay: CDK5/ p35 (h) Upstate kinase activity assay; type: protein-complex assay; conditions: Compound concentration 10.0 uM
[9] = target: T3, Calcium/calmodulin-dependent protein kinase type IV (Homo sapiens) (UniProt Q16566); assay: CaMKIV (h) Upstate kinase activity assay; conditions: Compound concentration 10.0 uM
T3 sequence (whole entry): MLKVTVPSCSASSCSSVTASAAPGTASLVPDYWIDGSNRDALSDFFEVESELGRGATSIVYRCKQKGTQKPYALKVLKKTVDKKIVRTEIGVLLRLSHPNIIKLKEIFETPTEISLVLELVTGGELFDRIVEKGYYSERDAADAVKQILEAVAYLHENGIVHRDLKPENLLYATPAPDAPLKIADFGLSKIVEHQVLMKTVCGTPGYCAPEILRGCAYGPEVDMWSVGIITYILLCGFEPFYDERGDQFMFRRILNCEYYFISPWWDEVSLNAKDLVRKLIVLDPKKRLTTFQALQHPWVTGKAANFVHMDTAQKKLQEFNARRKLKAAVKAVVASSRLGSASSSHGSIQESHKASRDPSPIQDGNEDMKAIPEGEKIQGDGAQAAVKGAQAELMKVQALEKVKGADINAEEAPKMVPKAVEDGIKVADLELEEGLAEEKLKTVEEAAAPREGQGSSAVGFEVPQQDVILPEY

[10] = target: Tyrosine-protein kinase Lyn (Homo sapiens) (UniProt P07948); assay: Lyn (h) Upstate kinase activity assay; conditions: Compound concentration 10.0 uM
[11] = target: Ephrin type-A receptor 2 (Homo sapiens) (UniProt P29317); assay: EphA2 (h) Upstate kinase activity assay; conditions: Compound concentration 10.0 uM
[12] = tested on: A498; assay: Kidney A-498 cell line MDS Pharma Services Proliferation Assay; type: functional, cell-based, Homo sapiens
[13] = tested on: Saccharomyces cerevisiae; assay: CK1 (y) Upstate kinase activity assay; conditions: Compound concentration 10.0 uM
[14] = target: Protein kinase C theta type (Homo sapiens) (UniProt Q04759); assay: PKCtheta (h) Upstate kinase activity assay; conditions: Compound concentration 10.0 uM
[15] = tested on: T47D; assay: Breast T-47D cell line MDS Pharma Services Proliferation Assay; type: functional, cell-based, Homo sapiens
[16] = tested on: PANC-1; assay: Pancreas PANC-1 cell line MDS Pharma Services Proliferation Assay; type: functional, cell-based, Homo sapiens
[17] = target: Tyrosine-protein kinase Fes/Fps (Homo sapiens) (UniProt P07332); assay: Fes (h) Upstate kinase activity assay; conditions: Compound concentration 10.0 uM
[18] = target: Casein kinase II subunit alpha (Homo sapiens) (UniProt P68400); assay: CK2 (h) Upstate kinase activity assay; conditions: Compound concentration 10.0 uM
[19] = tested on: A549; assay: Lung A549 cell line MDS Pharma Services Proliferation Assay; type: functional, cell-based, Homo sapiens
[20] = target: GABA-A receptor; anion channel (Rattus norvegicus) (UniProt O09028+P15431+P18506+P18508+P19969+P20236+P23574+P23576+P28471+P28473+P30191+P62813+P63079+P63138+Q91ZM7+Q9ES14); conditions: Compound concentration 10.0 uM

Sequence of Cyclin-dependent kinase 5/CDK5 activator 1 (Homo sapiens) (Q00535 whole entry): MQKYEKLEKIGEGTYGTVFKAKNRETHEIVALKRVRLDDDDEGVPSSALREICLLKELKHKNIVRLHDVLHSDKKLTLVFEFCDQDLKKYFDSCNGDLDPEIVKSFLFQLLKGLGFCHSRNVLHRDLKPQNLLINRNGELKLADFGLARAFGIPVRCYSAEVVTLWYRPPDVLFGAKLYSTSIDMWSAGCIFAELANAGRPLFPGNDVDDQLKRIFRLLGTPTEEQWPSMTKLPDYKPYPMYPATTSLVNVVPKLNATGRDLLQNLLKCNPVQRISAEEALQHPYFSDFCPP
Sequence of Cyclin-dependent kinase 5/CDK5 activator 1 (Homo sapiens) (Q15078 99-307 partner limits assumed): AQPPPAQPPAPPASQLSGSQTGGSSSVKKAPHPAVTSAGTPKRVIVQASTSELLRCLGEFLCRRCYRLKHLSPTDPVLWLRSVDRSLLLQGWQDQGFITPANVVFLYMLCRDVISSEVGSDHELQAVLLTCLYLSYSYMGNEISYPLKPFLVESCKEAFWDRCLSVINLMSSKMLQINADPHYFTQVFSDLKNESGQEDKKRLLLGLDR
Sequence of Tyrosine-protein kinase Fes/Fps (Homo sapiens) (P07332 whole entry): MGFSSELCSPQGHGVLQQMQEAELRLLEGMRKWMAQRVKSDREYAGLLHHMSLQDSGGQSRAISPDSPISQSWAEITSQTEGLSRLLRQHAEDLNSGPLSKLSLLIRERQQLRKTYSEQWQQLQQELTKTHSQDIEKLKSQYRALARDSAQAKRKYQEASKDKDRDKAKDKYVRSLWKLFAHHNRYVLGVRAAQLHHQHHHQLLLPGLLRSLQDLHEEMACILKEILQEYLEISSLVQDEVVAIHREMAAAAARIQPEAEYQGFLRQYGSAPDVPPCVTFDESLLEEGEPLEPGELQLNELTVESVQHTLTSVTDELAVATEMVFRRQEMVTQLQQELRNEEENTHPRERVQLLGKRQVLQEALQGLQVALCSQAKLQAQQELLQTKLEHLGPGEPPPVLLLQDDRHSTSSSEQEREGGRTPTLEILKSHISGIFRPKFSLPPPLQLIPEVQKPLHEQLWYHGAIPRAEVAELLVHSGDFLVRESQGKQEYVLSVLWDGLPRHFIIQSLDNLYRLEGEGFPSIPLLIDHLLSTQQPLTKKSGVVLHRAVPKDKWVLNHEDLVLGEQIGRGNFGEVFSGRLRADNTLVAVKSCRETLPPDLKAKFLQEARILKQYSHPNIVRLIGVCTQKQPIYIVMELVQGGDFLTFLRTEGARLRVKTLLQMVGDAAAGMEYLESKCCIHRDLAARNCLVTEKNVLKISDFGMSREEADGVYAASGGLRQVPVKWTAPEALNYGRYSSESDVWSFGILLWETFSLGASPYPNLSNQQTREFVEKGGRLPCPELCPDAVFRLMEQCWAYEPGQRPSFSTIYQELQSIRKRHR
Sequence of Ephrin type-A receptor 2 (Homo sapiens) (P29317 whole entry): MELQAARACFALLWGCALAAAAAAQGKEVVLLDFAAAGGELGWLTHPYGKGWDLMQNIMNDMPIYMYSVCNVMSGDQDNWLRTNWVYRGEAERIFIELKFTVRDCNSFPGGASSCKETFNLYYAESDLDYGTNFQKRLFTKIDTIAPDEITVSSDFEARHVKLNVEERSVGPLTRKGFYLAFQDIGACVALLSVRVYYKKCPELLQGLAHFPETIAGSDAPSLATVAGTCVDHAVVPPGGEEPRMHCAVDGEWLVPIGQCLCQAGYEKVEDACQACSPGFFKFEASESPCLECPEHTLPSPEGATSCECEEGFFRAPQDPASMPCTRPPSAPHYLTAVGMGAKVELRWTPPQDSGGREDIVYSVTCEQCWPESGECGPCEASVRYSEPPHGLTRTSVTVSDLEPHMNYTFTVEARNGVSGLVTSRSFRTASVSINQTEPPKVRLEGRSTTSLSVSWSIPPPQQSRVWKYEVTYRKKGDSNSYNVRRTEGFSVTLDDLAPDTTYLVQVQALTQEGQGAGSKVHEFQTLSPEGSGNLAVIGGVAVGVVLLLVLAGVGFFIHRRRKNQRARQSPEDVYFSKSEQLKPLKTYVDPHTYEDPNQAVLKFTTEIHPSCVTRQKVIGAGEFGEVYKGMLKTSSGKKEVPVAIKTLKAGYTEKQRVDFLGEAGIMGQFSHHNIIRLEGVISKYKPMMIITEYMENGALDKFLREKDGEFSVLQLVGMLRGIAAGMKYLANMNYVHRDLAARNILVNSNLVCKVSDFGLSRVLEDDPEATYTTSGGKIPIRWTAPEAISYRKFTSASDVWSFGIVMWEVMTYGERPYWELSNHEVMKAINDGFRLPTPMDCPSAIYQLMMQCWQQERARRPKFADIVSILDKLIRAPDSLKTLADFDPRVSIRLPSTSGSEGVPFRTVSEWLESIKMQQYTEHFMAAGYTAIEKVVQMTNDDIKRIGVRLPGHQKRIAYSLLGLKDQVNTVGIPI
Sequence of Insulin receptor (Homo sapiens) (P06213 28-758 limits assumed): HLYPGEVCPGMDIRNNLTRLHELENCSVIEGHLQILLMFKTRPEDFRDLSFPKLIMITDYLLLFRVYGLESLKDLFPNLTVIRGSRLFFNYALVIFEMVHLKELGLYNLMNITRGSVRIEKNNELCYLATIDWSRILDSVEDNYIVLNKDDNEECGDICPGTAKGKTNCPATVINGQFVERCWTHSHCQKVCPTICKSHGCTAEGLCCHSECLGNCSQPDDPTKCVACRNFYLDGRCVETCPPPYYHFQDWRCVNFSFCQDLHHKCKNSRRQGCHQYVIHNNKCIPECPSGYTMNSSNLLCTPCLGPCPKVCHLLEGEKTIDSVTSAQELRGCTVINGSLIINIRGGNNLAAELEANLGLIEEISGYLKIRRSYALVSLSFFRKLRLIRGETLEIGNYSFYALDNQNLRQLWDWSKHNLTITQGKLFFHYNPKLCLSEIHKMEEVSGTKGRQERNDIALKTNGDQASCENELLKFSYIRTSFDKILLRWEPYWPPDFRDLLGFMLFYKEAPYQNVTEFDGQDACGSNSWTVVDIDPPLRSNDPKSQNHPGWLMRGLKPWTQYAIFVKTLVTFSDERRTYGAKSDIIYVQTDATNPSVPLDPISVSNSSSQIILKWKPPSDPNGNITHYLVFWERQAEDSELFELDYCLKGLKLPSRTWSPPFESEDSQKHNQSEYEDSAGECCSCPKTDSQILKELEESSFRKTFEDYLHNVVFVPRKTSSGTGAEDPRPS
Sequence of Insulin receptor (Homo sapiens) (P06213 763-1382 limits assumed): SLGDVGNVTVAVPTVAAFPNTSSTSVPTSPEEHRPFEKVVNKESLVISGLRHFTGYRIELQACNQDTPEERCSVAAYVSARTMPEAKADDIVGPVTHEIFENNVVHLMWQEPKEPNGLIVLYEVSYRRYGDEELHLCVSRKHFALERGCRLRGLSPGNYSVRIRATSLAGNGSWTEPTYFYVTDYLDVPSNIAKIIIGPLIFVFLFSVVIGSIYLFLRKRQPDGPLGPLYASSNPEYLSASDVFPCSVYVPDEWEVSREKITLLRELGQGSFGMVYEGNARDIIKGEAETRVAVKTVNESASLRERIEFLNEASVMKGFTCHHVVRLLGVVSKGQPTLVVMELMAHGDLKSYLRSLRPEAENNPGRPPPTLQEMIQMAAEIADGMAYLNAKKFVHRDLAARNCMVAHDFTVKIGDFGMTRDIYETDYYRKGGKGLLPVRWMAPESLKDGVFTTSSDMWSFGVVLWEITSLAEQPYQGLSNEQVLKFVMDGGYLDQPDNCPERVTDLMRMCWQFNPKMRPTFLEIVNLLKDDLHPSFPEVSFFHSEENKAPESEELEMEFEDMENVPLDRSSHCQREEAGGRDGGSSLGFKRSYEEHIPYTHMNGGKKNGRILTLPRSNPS
Sequence of Sodium-dependent noradrenaline transporter (Homo sapiens) (P23975 whole entry): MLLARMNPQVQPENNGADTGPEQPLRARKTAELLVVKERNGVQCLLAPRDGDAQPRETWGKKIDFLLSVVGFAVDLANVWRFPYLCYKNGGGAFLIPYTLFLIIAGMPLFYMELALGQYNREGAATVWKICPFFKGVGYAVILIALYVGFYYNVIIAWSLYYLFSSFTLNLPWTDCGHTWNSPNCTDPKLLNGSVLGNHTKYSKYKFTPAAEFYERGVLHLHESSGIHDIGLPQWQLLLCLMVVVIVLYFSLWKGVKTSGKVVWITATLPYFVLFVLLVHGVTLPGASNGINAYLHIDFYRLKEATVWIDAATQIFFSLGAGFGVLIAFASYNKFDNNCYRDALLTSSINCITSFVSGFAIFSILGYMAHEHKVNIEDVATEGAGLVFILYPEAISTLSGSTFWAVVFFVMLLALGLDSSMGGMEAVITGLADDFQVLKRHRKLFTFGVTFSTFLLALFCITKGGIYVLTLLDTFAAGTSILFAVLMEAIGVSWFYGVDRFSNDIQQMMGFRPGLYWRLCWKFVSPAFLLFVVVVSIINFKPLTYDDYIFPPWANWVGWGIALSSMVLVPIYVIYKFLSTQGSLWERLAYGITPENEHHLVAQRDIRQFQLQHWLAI
Sequence of Protein kinase C theta type (Homo sapiens) (Q04759 whole entry, looked up): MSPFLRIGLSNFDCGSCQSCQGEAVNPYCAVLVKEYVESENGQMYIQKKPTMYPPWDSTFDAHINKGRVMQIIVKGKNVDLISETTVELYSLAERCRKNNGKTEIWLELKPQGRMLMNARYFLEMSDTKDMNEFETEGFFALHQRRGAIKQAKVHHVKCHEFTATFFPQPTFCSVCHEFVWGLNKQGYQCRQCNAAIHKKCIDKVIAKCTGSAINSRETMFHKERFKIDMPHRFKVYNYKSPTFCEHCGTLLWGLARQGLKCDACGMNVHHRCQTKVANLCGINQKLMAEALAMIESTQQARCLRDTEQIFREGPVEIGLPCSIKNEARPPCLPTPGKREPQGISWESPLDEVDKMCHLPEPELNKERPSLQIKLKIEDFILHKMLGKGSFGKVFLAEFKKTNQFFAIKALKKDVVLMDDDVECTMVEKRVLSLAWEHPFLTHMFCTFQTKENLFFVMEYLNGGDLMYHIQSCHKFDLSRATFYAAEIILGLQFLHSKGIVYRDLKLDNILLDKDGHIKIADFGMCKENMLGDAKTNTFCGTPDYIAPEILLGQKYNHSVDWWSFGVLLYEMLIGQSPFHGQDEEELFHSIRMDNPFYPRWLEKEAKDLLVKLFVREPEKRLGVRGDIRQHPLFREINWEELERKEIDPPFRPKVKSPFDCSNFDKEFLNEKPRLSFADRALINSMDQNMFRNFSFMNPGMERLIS

Cn1cc(Cl)c2c(Oc3c(F)cc(Nc4cc(Cl)nc(N)n4)cc3F)ccnc21 [BAY-4900]
residual activity [1]: 97%
inhibition [2]: 3.14%
residual activity [3]: 100%

Cc1c[nH]c2nccc(Oc3c(F)cc(Nc4cc(Cl)nc(N)n4)cc3F)c12 [BAY-549]
inhibition [4]: 4%
inhibition [5]: 98%
inhibition [6]: 18%
inhibition [7]: 59%
inhibition [8]: 7%
inhibition [9]: -8%
inhibition [10]: 31%
inhibition [11]: 4%
pIC50 ([12]; Homo sapiens, A498): 5.11
TGI ([12]; Homo sapiens, A498): 70 µM
CC50 ([12]; Homo sapiens, A498, read-out: LC50 (the source's name)): > 100 µM
Mean % growth (n = 2) for 0.01 µM probe concentration ([12]; ± SEM 2 % growth): 99%
Mean % growth (n = 2) for 10.0 µM probe concentration ([12]; ± SEM 2 % growth): 26%
Mean % growth (n = 2) for 100.0 µM probe concentration ([12]; ± SEM 2 % growth): -1%
Mean % growth (n = 2) for 0.1 µM probe concentration ([12]; ± SEM 5 % growth): 93%
Mean % growth (n = 2) for 1.0 µM probe concentration ([12]; ± SEM 5 % growth): 98%
inhibition [13]: 44%
inhibition [14]: 42%
pIC50 ([15]; Homo sapiens, T47D): 5.54
TGI ([15]; Homo sapiens, T47D): 15 µM
CC50 ([15]; Homo sapiens, T47D, read-out: LC50 (the source's name)): 75 µM
Mean % growth (n = 2) for 1.0 µM probe concentration ([15]; ± SEM 1 % growth): 86%
Mean % growth (n = 2) for 100.0 µM probe concentration ([15]; ± SEM 2 % growth): -45%
Mean % growth (n = 2) for 10.0 µM probe concentration ([15]; ± SEM 4 % growth): -2%
Mean % growth (n = 2) for 0.01 µM probe concentration ([15]; ± SEM 6 % growth): 106%
Mean % growth (n = 2) for 0.1 µM probe concentration ([15]; ± SEM 8 % growth): 97%
TGI ([16]; Homo sapiens, PANC-1): 45 µM
CC50 ([16]; Homo sapiens, PANC-1, read-out: LC50 (the source's name)): > 100 µM
Mean % growth (n = 2) for 10.0 µM probe concentration ([16]; ± SEM 1 % growth): 55%
Mean % growth (n = 2) for 1.0 µM probe concentration ([16]; ± SEM 2 % growth): 87%
Mean % growth (n = 2) for 0.1 µM probe concentration ([16]; ± SEM 3 % growth): 86%
Mean % growth (n = 2) for 0.01 µM probe concentration ([16]; ± SEM 8 % growth): 98%
Mean % growth (n = 2) for 100.0 µM probe concentration ([16]; ± SEM 9 % growth): -31%
inhibition [17]: 28%
inhibition [18]: 6%
pIC50 ([19]; Homo sapiens, A549): 5.82
TGI ([19]; Homo sapiens, A549): 25 µM
CC50 ([19]; Homo sapiens, A549, read-out: LC50 (the source's name)): > 100 µM
Mean % growth (n = 2) for 1.0 µM probe concentration ([19]; ± SEM 2 % growth): 42%
Mean % growth (n = 2) for 10.0 µM probe concentration ([19]; ± SEM 2 % growth): 7%
Mean % growth (n = 2) for 100.0 µM probe concentration ([19]; ± SEM 3 % growth): -15%
Mean % growth (n = 2) for 0.01 µM probe concentration ([19]; ± SEM 4 % growth): 103%
Mean % growth (n = 2) for 0.1 µM probe concentration ([19]; ± SEM 4 % growth): 97%
inhibition [20]: -8.68%

Source: ChEMBL document CHEMBL4507274 (2021)
